Experimental data: PMC12040169 (PLOS Biology, 2025)

assay: in vitro; conditions: human, hela cells, % viability

Compound | viability at 28.5 h, 10 µM
CCOc1ccc(-c2cc(C(=O)NCc3cc(OC)ccc3OC)n[nH]2)cc1 [CBK288116] | 85.7%
COc1ccc(Nc2n[nH]c3nc(C)cc(=O)n23)cc1 [CBK288117] | 91.1%
Cn1c(=O)n(C)c2cc(CNCc3ccccn3)ccc21 [CBK288118] | 95.4%
N#Cc1cc2c(=O)n(-c3ccccn3)ccc2[nH]c1=O [CBK288119] | 94.5%
CC1CCCN(c2nc3nc[nH]c(=O)c3s2)C1 (stereo not drawn) [CBK288120] | 83.4%
Cc1ccc(C(=O)Nc2noc3ccccc23)cc1 [CBK288124] | 88.9%
CCOc1ccc(Cl)cc1CNc1nnnn1CC [CBK288128] | 92.9%
COc1ccc(CNc2nc[nH]n2)c(OC)c1OC [CBK288129] | 103%
CC(=O)Nc1ccc(-c2nc3ncccc3o2)cc1C [CBK288132] | 91.1%
Cc1ccc(NC(=O)C2CC(=O)Nc3nc4ccccc4n32)cc1 (stereo not drawn) [CBK288134] | 113%
Cc1ccccc1-c1cc(=O)[nH]c(Nc2ccccc2)n1 [CBK288142] | 97%
Cc1ccc(Nc2ncc3c(n2)CCCC3=O)cc1 [CBK288143] | 87.6%
COc1cc(C2C3=C(COC3=O)Nc3[nH]nc(C)c32)ccc1O (stereo not drawn) [CBK288146] | 98.5%
O=C1CCCC2=C1C(c1ccc(OCc3ccccc3)cc1)c1c([nH][nH]c1=O)N2 (stereo not drawn) [CBK288149] | 92.1%
O=C1CCCC2=C1C(c1ccccc1Cl)n1nnnc1N2 (stereo not drawn) [CBK288151] | 93%
Cc1ccc(-c2nc3ncc(C#N)c(N)n3n2)cc1 [CBK288153] | 106%
O=C1NNC=Cc2c1cnc1nc(C(F)(F)F)nn21 [CBK288156] | 93.3%
Cc1cc(C)nc(NC(=N)NCc2ccccc2)n1 [CBK288157] | 94.2%
CCN1C(=O)c2[nH]nc(-c3ccccc3O)c2C1c1cccc(O)c1 (stereo not drawn) [CBK288159] | 95.9%
Cc1ccc(-n2c(C)c(C)c3c(NCCO)cnnc32)cc1 [CBK288162] | 101%
Cn1c(=O)c2c(nc(NCCOCCO)n2C)n(C)c1=O [CBK288164] | 98.2%
COCc1cc(=O)n2ncc(-c3ccccc3)c2[nH]1 [CBK288168] | 84.6%
CSc1nc2n(n1)C(C)C1=C(CCCC1=O)N2 (stereo not drawn) [CBK288169] | 108%
COc1cc(NC(=O)c2nc[nH]n2)c(OC)cc1Cl [CBK288170] | 93%

Compound | viability at 28.5 h, 10 µM
c1ccc2c(c1)NC(c1ccncc1)n1nnnc1-2 (stereo not drawn) [CBK288171] | 82.5%
Cc1ccc(C(=O)n2nc(-c3cccnc3)nc2N)cc1 [CBK288172] | 97.4%
Oc1cc(Cc2ccccc2)cnc1CN1CCOCC1 [CBK288173] | 94%
CCOc1cc(O)c(-c2nc(N)ncc2-c2ccc3c(c2)OCCO3)cc1CC [CBK288174] | 94.7%
NC(=O)Nc1ccc2c(c1)ncn2C1CCCCC1 [CBK288176] | 95.6%
CCOc1ccc(-c2c(C3CC3)n[nH]c2N)cc1OCC [CBK288177] | 107%
CC(C)(C)NC(=O)COc1ccc(CNc2nc[nH]n2)cc1 [CBK288179] | 89.3%
N#Cc1ccc(C2NC(=O)c3ccccc3O2)cc1 (stereo not drawn) [CBK288180] | 89.3%
Nc1ncnc2c1nc(SCc1ccccc1)n2Cc1ccccc1 [CBK288181] | 90.9%
O=C(O)CC1Cn2ncc(-c3ccccc3)c2NC1=O (stereo not drawn) [CBK288187] | 89.5%
O=c1c2c([nH]c3nc(COc4ccccc4)nn13)CCC2 [CBK288188] | 98%
Nc1cc(=O)[nH]c(=O)n1CCc1c[nH]c2ccccc12 [CBK288190] | 98.1%
Cc1ccc(-c2c(N3CCCC3)n[nH]c2C2CC2)cc1 [CBK288192] | 97.8%
Cc1nc(=O)c(-c2ccccc2)c(C)n1-c1ccc2cn[nH]c2c1 [CBK288193] | 100%
Nc1nc2n(c1C(=O)c1ccc(Cl)cc1)CCC2 [CBK288194] | 92.5%
COc1ccc(Cl)cc1Nc1ncnc(N)n1 [CBK288195] | 100%
N#Cc1c2c(c3nncn3c1Nc1ccccc1)CCCC2 [CBK288197] | 97.7%
CC1(C)Cc2c(cnn2-c2ccc(F)cc2)C(N)C1 (stereo not drawn) [CBK288200] | 91.9%
COc1ccccc1OCC(=O)N1CCNC1=O [CBK288201] | 93.8%
O=C(Cc1ccccc1)Nc1ccc2[nH]ncc2c1 [CBK288211] | 104%
CCCc1cc(C(=O)Nc2nccs2)cs1 [CBK288212] | 83.9%
O=C(Nc1ncccc1Cl)c1ccc(F)cc1 [CBK288215] | 93.1%
Nc1nc2n(n1)C1(CCCCC1)C1=C(CCCC1)N2 [CBK288219] | 86.7%
CC(C)(Oc1ccc(Cl)cc1)C(=O)Nc1nnc[nH]1 [CBK288220] | 102%

Compound | viability at 28.5 h, 10 µM
Cc1ccc2c(c1C)NC(=O)CC2c1ccc(F)cc1 (stereo not drawn) [CBK288221] | 101%
Cc1ccc(Nc2nc(N)nc(-c3cc4ccccc4o3)n2)cc1 [CBK288222] | 105%
CCCCN1CC(C(=O)Nc2nccs2)CC1=O (stereo not drawn) [CBK288224] | 95.3%
CSc1ccccc1C(=O)Nc1nccs1 [CBK288225] | 88.7%
Cc1nc(N2CCCC2)ncc1-c1cc(O)nc(N2CCCCC2)n1 [CBK288226] | 92.3%
Oc1ccc(-c2oncc2-c2ccccc2)c(O)c1 [CBK288228] | 96.2%
Cc1cccc(NC(=O)c2n[nH]c3ccccc23)c1 [CBK288231] | 84.6%
O=C1NN=C(c2ccccc2)CC1c1c[nH]c2ccccc12 (stereo not drawn) [CBK288235] | 104%
CN(C)c1nc(N)nc(COc2ccccc2F)n1 [CBK288236] | 105%
O=C1CC(c2ccccc2)c2c(c3ccccc3[nH]c2=O)O1 (stereo not drawn) [CBK288237] | 112%
COc1cccc(-c2n[nH]c3c2C(c2cccnc2)NC3=O)c1 (stereo not drawn) [CBK288238] | 86.3%
COc1ccc(Oc2c(C)n[nH]c2-c2ccc(O)cc2O)cc1 [CBK288239] | 96%
Cn1nccc1C(=O)N1CCN(c2ncccn2)CC1 [CBK288240] | 90.7%
Cc1n[nH]c(C)c1C12CC3CC(CC(CC(=O)O)(C3)C1)C2 [CBK288241] | 92.2%
O=C(NCc1ccncc1)C1CC1c1ccccc1 (stereo not drawn) [CBK288242] | 107%
Cc1cc(NC(=O)Nc2cccc(Cl)c2C)no1 [CBK288245] | 87.3%
Cc1cnc(NC(=O)C(C)Oc2ccccc2)s1 (stereo not drawn) [CBK288250] | 108%
Cc1csc(NC(=O)Cc2ccccc2F)n1 [CBK288252] | 84.3%
O=C1c2ccccc2NC(c2cnc3ccccc3n2)N1O (stereo not drawn) [CBK288357] | 84.7%
COc1ccccc1-c1cc(C(F)F)nc(S)c1C#N [CBK288358] | 88.8%
CCOc1cc(/C=N/O)c(Br)cc1O [CBK288359] | 87.4%
S=c1nccc(N2CCC(Cc3ccccc3)CC2)[nH]1 [CBK288361] | 112%
CCCOc1ccc(-c2cc(C(=O)NO)n[nH]2)cc1C [CBK288362] | 61.3%
O=c1cc(CO)oc(CN2CCCCCC2)c1O [CBK288363] | 97.7%
